Experimental data as given in patent publication EP4806910A1, “TRI-AGONIST COMPOUND” (priority 2023, dated 2025).

Key:
[1] = target: T1, GLP-1R (Homo sapiens, UniProt P43220); test: GLP-1 activity test (cAMP, chemiluminescence); assay type: cell-based
T1 construct: expressed in transfected cells; host or cells: CHO-K1
Experimental: (§1) Upon stimulation by a specific agonist, GLP-1R activates the intracellular adenylate cyclase signaling pathway, resulting in an increase in cAMP levels and ultimately leading to insulin production and secretion. A cell line stably transfected with GLP-1R was stimulated with test compounds, thereby rapidly increasing intracellular cAMP levels. The relative luminescence units (RLU) of cells stimulated at various concentrations were measured by a chemiluminescence method, and the EC50 value of the agonist was calculated accordingly. This activity test method is currently a commonly used method for evaluating GLP-1 receptor agonist activity both domestically and internationally. A CHO-K1 cell line stably expressing GLP-1R was used. The stable cells were stimulated with agonists at different concentrations, and the relative luminescence units after stimulation at each concentration were measured to calculate the EC50 value of the agonist.

[2] = target: T2, GIPR (Homo sapiens, UniProt P48546); test: GIP activity test (cAMP, chemiluminescence); assay type: cell-based
T2 construct: expressed in transfected cells; host or cells: CHO-K1
T2 sequence (P48546 22-466): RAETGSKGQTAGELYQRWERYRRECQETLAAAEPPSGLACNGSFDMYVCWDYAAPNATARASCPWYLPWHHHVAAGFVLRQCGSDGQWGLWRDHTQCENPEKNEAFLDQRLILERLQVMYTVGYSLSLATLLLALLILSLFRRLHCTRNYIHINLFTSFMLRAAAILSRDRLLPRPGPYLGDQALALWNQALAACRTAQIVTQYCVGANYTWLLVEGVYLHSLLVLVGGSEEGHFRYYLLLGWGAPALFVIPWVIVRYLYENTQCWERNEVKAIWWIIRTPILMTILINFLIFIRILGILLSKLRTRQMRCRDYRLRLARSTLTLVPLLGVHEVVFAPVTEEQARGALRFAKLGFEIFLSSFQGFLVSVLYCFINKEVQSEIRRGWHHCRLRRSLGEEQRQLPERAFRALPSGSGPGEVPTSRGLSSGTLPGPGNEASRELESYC
Experimental: as §1, with “agonist, GIPR” for “agonist, GLP-1R”, “with GIPR” for “with GLP-1R”, “activity assay” for “activity test”, “evaluating GIP” for “evaluating GLP-1”, “expressing GIPR” for “expressing GLP-1R”

[3] = target: T3, GCG-R (Homo sapiens, UniProt P47871); test: GCG activity test (cAMP, chemiluminescence); assay type: cell-based
T3 construct: expressed in transfected cells; host or cells: CHO-K1
Experimental: Upon stimulation by a specific agonist, GCG-R activates the intracellular adenylate cyclase signaling pathway, resulting in an increase in cAMP levels and ultimately leading to insulin production and secretion. A cell line stably transfected with GCG-R was stimulated with test compounds, thereby rapidly increasing intracellular cAMP levels. The relative luminescence units (RLU) of cells stimulated at various concentrations were measured by a chemiluminescence method, and the EC50 value of the agonist was calculated accordingly. This activity assay method is currently a commonly used method for evaluating GCG receptor agonist activity both domestically and internationally.
A CHO-K1 cell line stably expressing GCG-R was used. The stable cells were stimulated with agonists at different concentrations, and the relative luminescence units after stimulation at each concentration were measured to calculate the EC50 value of the agonist.

[4] = Preliminary pharmacokinetic evaluation, plasma concentration by LC-MS; assay type: in vivo, cynomolgus monkeys; conditions: for half-life: cynomolgus monkey, male cynomolgus monkeys, subcutaneously (SC), 0.2 mg/kg, plasma; for half-lives: cynomolgus monkeys, administered subcutaneously
Experimental: The test animals were male cynomolgus monkeys. Two animals were used for each compound. The compounds were administered subcutaneously at a dose of 0.2 mg/kg. Blood samples were collected via intravenous sampling prior to administration (0 h) and at 1 h, 2 h, 3 h, 4 h, 8 h, 12 h, 18 h, 24 h, 48 h, 96 h, 144 h, and 168 h after administration. Plasma samples were obtained by centrifugation. The plasma concentrations of the compounds were respectively determined by liquid chromatography - mass spectrometry (LC-MS).

T1 sequence (P43220 24-463, species assumed): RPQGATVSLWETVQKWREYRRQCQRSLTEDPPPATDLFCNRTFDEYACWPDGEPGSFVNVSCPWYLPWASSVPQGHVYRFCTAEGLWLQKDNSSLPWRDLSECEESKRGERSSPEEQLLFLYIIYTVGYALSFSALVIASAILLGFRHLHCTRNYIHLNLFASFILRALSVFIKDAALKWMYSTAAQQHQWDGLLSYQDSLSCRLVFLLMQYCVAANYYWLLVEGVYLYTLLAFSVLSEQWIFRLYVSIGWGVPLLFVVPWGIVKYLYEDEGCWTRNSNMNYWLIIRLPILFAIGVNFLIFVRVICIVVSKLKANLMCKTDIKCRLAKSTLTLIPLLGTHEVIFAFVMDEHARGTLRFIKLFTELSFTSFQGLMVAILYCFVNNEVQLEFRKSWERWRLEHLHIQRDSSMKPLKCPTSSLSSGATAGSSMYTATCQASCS
T3 sequence (P47871 26-477, species assumed): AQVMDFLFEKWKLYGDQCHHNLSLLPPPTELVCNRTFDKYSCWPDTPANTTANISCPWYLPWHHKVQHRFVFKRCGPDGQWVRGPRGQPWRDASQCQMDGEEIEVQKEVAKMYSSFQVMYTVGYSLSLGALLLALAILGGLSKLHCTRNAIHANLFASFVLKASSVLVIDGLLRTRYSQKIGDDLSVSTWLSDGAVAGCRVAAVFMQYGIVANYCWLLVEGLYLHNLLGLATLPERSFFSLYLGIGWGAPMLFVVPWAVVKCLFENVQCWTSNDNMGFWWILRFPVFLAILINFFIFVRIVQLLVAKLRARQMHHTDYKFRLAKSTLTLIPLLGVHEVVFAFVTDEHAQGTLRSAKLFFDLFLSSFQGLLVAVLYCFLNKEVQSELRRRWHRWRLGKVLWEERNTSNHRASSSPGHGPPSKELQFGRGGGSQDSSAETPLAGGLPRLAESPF

| SMILES | EC50 [1] | EC50 [2] | EC50 [3] | half-life [4] | half-lives [4] |
| --- | --- | --- | --- | --- | --- |
| CC[C@H](C)[C@H](NC(=O)[C@H](Cc1ccccc1)NC(=O)[C@H](C)NC(=O)C(C)(C)NC(=O)[C@H](CCC(N)=O)NC(=O)[C@H](C)NC(=O)[C@H](CCCCNC(=O)COCCOCCNC(=O)CCC[C@H](NC(=O)CCCCCCCCCCCCCCCCCCC(=O)O)C(=O)O)NC(=O)[C@H](CCCCN)NC(=O)[C@H](CC(=O)O)NC(=O)[C@H](CC(C)C)NC(=O)C(C)(CC(C)C)NC(=O)[C@@H](NC(=O)[C@H](CO)NC(=O)[C@H](Cc1ccc(O)cc1)NC(=O)[C@H](CC(=O)O)NC(=O)[C@H](CO)NC(=O)[C@@H](NC(=O)C(C)(Cc1ccccc1)NC(=O)[C@@H](NC(=O)CNC(=O)[C@H](CCC(N)=O)NC(=O)C(C)(C)NC(=O)[C@@H](N)Cc1ccc(O)cc1)[C@@H](C)O)[C@@H](C)O)[C@@H](C)CC)C(=O)N[C@@H](CCC(=O)O)C(=O)N[C@@H](Cc1ccc(O)cc1)C(=O)N[C@@H](CC(C)C)C(=O)N[C@@H](CC(C)C)C(=O)N[C@@H](CCC(=O)O)C(=O)NCCCCC(=O)N1CCC[C@H]1C(=O)N[C@@H](CO)C(=O)N[C@@H](CO)C(=O)NCC(=O)N[C@@H](C)C(=O)N1CCC[C@H]1C(=O)N1CCC[C@H]1C(=O)N1CCC[C@H]1C(=O)N[C@@H](CO)C(N)=O (stereo partly shown) [Compound 2] | 0.0406 nM | 0.0181 nM | 0.244 nM | 108 h | greater than 100 hours |
| CC[C@H](C)[C@H](NC(=O)[C@H](Cc1ccccc1)NC(=O)[C@H](C)NC(=O)C(C)(C)NC(=O)[C@H](CCC(N)=O)NC(=O)[C@H](C)NC(=O)[C@H](CCCCNC(=O)COCCOCCNC(=O)CCC[C@H](NC(=O)CCCCCCCCCCCCCCCCCCC(=O)O)C(=O)O)NC(=O)[C@H](CCCCN)NC(=O)[C@H](CC(=O)O)NC(=O)[C@H](CC(C)C)NC(=O)C(C)(CC(C)C)NC(=O)[C@@H](NC(=O)[C@H](CO)NC(=O)[C@H](Cc1ccc(O)cc1)NC(=O)[C@H](CC(=O)O)NC(=O)[C@H](CO)NC(=O)[C@@H](NC(=O)C(C)(Cc1ccccc1F)NC(=O)[C@@H](NC(=O)CNC(=O)[C@H](CCC(N)=O)NC(=O)C(C)(C)NC(=O)[C@@H](N)Cc1ccc(O)cc1)[C@@H](C)O)[C@@H](C)O)[C@@H](C)CC)C(=O)N[C@@H](CCC(=O)O)C(=O)N[C@@H](Cc1ccc(O)cc1)C(=O)N[C@@H](CC(C)C)C(=O)N[C@@H](CC(C)C)C(=O)N[C@@H](CCC(=O)O)C(=O)NCCCCC(=O)N1CCC[C@H]1C(=O)N[C@@H](CO)C(=O)N[C@@H](CO)C(=O)NCC(=O)N[C@@H](C)C(=O)N1CCC[C@H]1C(=O)N1CCC[C@H]1C(=O)N1CCC[C@H]1C(=O)N[C@@H](CO)C(N)=O (stereo partly shown) [Compound 6] | 0.0375 nM | 0.0188 nM | 0.141 nM | 115 h | greater than 100 hours |
